Measured values from patent publication US8642337B2, “Defined surfaces of self-assembled monolayers and stem cells” (Wisconsin Alumni Research Foundation, priority 2005, dated 2014).
No end group written: not given here.

Legend:
hES cells = experiment: FACS analysis of ES cells proliferated on large areas presenting synthetic substrates (one-component SAMs); type: cell-based, human; details: for Oct4 (% population): FACS, ES cells on one-component SAMs on 22×22 mm gold-coated substrates, after 1 week
From the text: Examination of the cell population within an array element provides a semi-quantitative indication of differentiation state of the ES cells. More rigorous analysis involves fluorescence-activated cell sorting (FACS) measurements to identify what population of the cells express specific markers of pluripotent stem cells. Therefore, we proliferated hES cells on gold-coated substrates of larger area (22×22 mm) containing one-component SAMs. FIG. 2a illustrate a representative FACS analysis of an ES cell population grown on a synthetic substrate after 1 week. Table 1 outlines the percentages of Oct4 positive cells obtained from each particular substrate. […] Specifically, we tested hES cell line H9 grown in synthetic media supplemented with high concentrations of basic FGF (referred to as UM100, indicating presence of […] of FGF-2 among the other components). Importantly, these conditions support growth of undifferentiated hES cells on Matrigel®.

hES cells (H1 and H9) = experiment: hES cell adhesion and growth screen on arrays of SAMs presenting peptides; type: cell-based, human; details: for Ability to support ES cell growth: laminin fragment screen on SAM array
Procedure: Human Embryonic Stem Cell Propagation and Plating: The human ES cell line, H1, was grown on Matrigel®-coated plates in MEF-CM supplemented with 4 ng/mL basic fibroblast growth factor (bFGF). To produce CM, MEFs were seeded at a density of 2.12×10^5 cells/mL and fed medium consisting of DMEM/F12, 20% Knockout™ serum replacement, 2 mM L-glutamine, 1% minimal essential media nonessential amino acids and 0.1 mM β-mercaptoethanol. Both cell lines (H1 and MEF) were maintained at 37° C./5% CO2 with CM collected, and cells fed approximately every 24 hours. Cell suspensions were made by treating with collagenase IV (1 mg/mL) for 10-12 minutes. The cells were scraped from the surface and suspended in CM.
Chips were sterilized as described above. To aid in ES cell patterning, the chips were then soaked in DMEM/F12 with 15% defined FBS for 1-2 hours and washed thoroughly. Then cells were plated on each chip (1-2×10^6 cells/chip) and allowed to incubate overnight. The next morning the chips were moved to fresh wells and fed with CM.
Test for alkaline phosphatase activity: The procedure for staining for alkaline phosphatase activity was essentially identical to the procedure supplied by the manufacturer. After propagation of the ES cells, the media was removed. The reagents in 100 mM Tris pH 8.5 were incubated with the chips for 30 minutes at 25° C. The chips were washed gently for 5 min with Tris buffer and then fixed and dried as usual.
We tested arrays of SAMs presenting a number of short peptides for their ability to support the growth of undifferentiated hES cells. The screen was done with the array presenting square elements of 0.5×0.5 mm (FIG. 1b) or 0.8×0.8 mm size (FIG. 1c). The 0.5×0.5 mm allowed 196 binding elements to be located on a single 22 mm square chip, and in turn the chip can easily fit in one well of a six-well culture plate. The ability of microarrays to localize multiple experiments to same a solution environment is invaluable for applications requiring frequent maintenance. For example, cultures of undifferentiated ES cell require daily changes of growth media. These changes can be easily performed on the entire microarray in one large well of a cell culture plate. For comparison, daily maintenance of experiments, on the same scale, performed in two 96-well plates, while practical, would require either significant human labor or specialized robotic equipment to function in a sterile environment to perform daily maintenance.
Cells grown on Matrigel® were detached using collagenase treatment and were plated on the microarray chip in the presence of CM. After twenty-four hours, media was replaced to remove dead and non-adherent cells. Attached cells were allowed to proliferate on the chip for five to six days and were supplement with fresh conditioned growth media daily. The experiment was stopped once cells reached 100% density in several (but not all) array elements. If continued, the cells in the array elements presenting 100% cell density usually detached, yielding square-shaped sheets of cells floating in solution, while cells in the other elements continued proliferation (not shown). This observation is consistent with those made earlier indicating cell growth variability in multi-component arrays and importance of the balanced duration of the experiment. Once the experiment was stopped, the cells were fixed and stained for markers of hES cell pluripotency. […]

[1] = system: Swiss 3T3 fibroblast cells; experiment: Fibroblast adhesion on patterned SAM chips/arrays; type: cell-based
Procedure: (§1) General Preparation of the Arrays of Self-Assembled Monolayers (Assembly After Conjugation Strategy): Chromium (1 nm) and then gold (25 nm) were evaporated onto piranha-cleaned glass coverslips (Corning No […], 23 mm squares) using a thermal evaporator (Denton Vacuum, Moorestown, N.J.). Substrates were immediately immersed into a 1 mM solution of fluoro-AT in absolute ethanol. After twenty-four hours, substrates were thoroughly rinsed with ethanol and dried under a stream of nitrogen. Coverslips with fluoro-AT SAM were irradiated with UV-light (1 kW, Hg—Xe Research Arc Lamp, Oriel Instruments (Spectra-Physics, Stratford, Conn.) through a quartz photomask (array of 500 μm or 750 μm squares, 0.067 quartz-chromium mask (Photo Sciences, Torrance, Calif.)) for 1 hour. Irradiated samples were rinsed thoroughly using several repetitive washes with absolute ethanol and distilled water and dried under a steam of nitrogen. Spotting of AT solutions onto the bare gold areas was performed within two hours of the photolithography. Spotting was performed manually using a P2-Pipetman (Gilson) in a humidity chamber. Spotted arrays were stored in the humidity chamber for twelve hours and thoroughly washed using repeated washes with ethanol and water. Rapid flow during washing was used to prevent cross-contamination of array spots.
Cell Culture: A neuroblastoma cell line, SH-SY5Y, was grown in 10% heat-inactivated fetal bovine serum (HI FBS), 45% high glucose Dulbecco's modified Eagle medium (DMEM), 45% Ham's F12 nutritional supplement (F12) with penicillin and streptomycin in an atmosphere of 5% CO2 at 37° C. A fibroblast cell line, Swiss 3T3, was propagated in 10% HI FBS in DMEM. For plating of the cells on the chips, cells were incubated at 37° C. with 5% trypsin/ethylenediamine-tetraacetic acid (EDTA), centrifuged and resuspended in media at 2×10^5 cells/mL and 5×10^5 cells/mL for the fibroblasts and neuroblastomas, respectively. Chips were sterilized by placing each in a single well of a 6-well plate, soaking in 70% ethanol, and drying under UV light for 1 hour. […]

[2] = system: SH-SY5Y neuroblastoma cells; experiment: Neuroblastoma adhesion on patterned SAM chips/arrays; type: cell-based
Procedure: as §1
Cell Culture: A neuroblastoma cell line, SH-SY5Y, was grown in 10% heat-inactivated fetal bovine serum (HI FBS), 45% high glucose Dulbecco's modified Eagle medium (DMEM), 45% Ham's F12 nutritional supplement (F12) with penicillin and streptomycin in an atmosphere of 5% CO2 at 37° C. A fibroblast cell line, Swiss 3T3, was propagated in 10% HI FBS in DMEM. For plating of the cells on the chips, cells were incubated at 37° C. with 5% trypsin/ethylenediamine-tetraacetic acid (EDTA), centrifuged and resuspended in media at 2×10^5 cells/mL and 5×10^5 cells/mL for the fibroblasts and neuroblastomas, respectively. Chips were sterilized by placing each in a single well of a 6-well plate, soaking in 70% ethanol, and drying under UV light for 1 hour. To the individual chips was added 3 mL of the cell suspensions to each well. After 2-5 hours, the media was gently replaced three times and the chips were picked up, transferred to a clean well and 3 mL of media was added. The cells on the chips were typically propagated between 1-7 days. The media was then removed, and the cells were fixed in PFA buffer (2% paraformaldehyde, 350 mM NaCl, 150 mM HEPES, 10 mM CaCl2, pH 7.4) for 20 minutes at 0° C. The cells were washed twice with Dulbecco's phosphate buffered saline and stained (0.1% Coomassie Brilliant Blue in H2O/MeOH/AcOH (50:50:1)) for 5-15 minutes after which the cells were washed twice with water and air dried. […]

hES cells (H1B) = experiment: Differentiation experiment: Oct-4 immunofluorescence on peptide surface arrays; type: cell-based, human; details: cultured on arrays thirteen days
From the text: Differentiation Experiment: SIDQVEPYSSTAQ (FGF, SEQ ID NO:8) is known to bind FGF receptor. FGF signaling, in turn, can suppress hES cell differentiation. […] (SEQ ID NO:9) is known to bind BMP-receptor. BMP signaling induces hES cell differentiation. KKQRFRHRNRKG (VHB, SEQ ID NO:10) is a heparin binding motif from vitronectin. Vitronectin supports hES cell adhesion. RGD peptide is known to bind cell surface receptors (integrins) involved in adhesion of various cell types.
hES cells (H1B) were passaged using the protease dispase from Matrigel® to the peptide surface arrays described above containing either BMP/RGD, BMP/VHB, FGF, FGF/RGD or FGF/VHB at various concentrations. hES cells were cultured on the arrays for thirteen days, fixed and stained by immunofluorescence. The cells were stained for a marker of pluripotency, Oct-4 (Green), and counterstained with DAPI (Blue).

GRYVVLPR (not fully specified (C-terminus); also: alkane thiol SAM)
Oct4 (% population) (hES cells): 98.99 % population

SDPGYIGSR (not fully specified (C-terminus); also: SAM immobilized) [laminin peptide containing YIGSR recognition motif, presented on SAM in either orientation]
ES cell adhesion (hES cells (H1 and H9); N-to-C orientation exposing YIGSR moiety): supports cell adhesion for ES cells, albeit with moderate reproducibility
ES cell adhesion (hES cells (H1 and H9); switched surface orientation, exposing SDPG-portion, same plating environment): obliterates cell adhesion

O=C(O)COCCOCCOCCOCCOCCCCCCCCCCCS [PEG acid-AT]
Measured cell adhesion versus mole fraction of acid ([1]; Swiss 3T3, PEG acid-AT diluted with polyol-AT in spotting solutions): decreased as the mole fraction of the acid in the spotting solutions approached 0.2
Cell growth on surface ([1]; Swiss-3T3, chips with fluoro-AT SAM background and PEG acid-AT squares made by immersion): dense squares of cells
Measured cell adhesion versus mole fraction of acid ([2]; SH-SY5Y, PEG acid-AT diluted with polyol-AT in spotting solutions): decreased as the mole fraction of the acid in the spotting solutions approached 0.2
Cell binding to spotted SAM ([2]; SH-SY5Y, SAMs formed by spotting AT solutions on bare gold squares): cells affixed to only the expected cytophilic surface
Cell growth on surface ([2]; SH-SY5Y, chips with fluoro-AT SAM background and PEG acid-AT squares made by immersion): dense squares of cells

YIGSR: sequence found in the matrix protein laminin, presented as peptide-AT array element (not fully specified (C-terminus); also: AT array conjugate) [reference compound]
Cell binding to peptide array element ([1]; fibroblasts, mixtures of polyol-AT and peptide-AT spotted): bound modestly
Cell adherence to peptide array element ([2]; neuroblastoma cells, mixtures of polyol-AT and peptide-AT spotted): adhered
Ability to support ES cell growth (hES cells (H1 and H9)): support ES cell growth

GRNIAEIIKDI (not fully specified (C-terminus); also: alkane thiol SAM)
Oct4 (% population) (hES cells): 98.12 % population
Cell binding to peptide on surface density gradient array (hES cells (H1 and H9); H1 cells, peptide-AT co-assembled with glucamine-AT): exhibits specific binding

DIRVTLNRL (not fully specified (C-terminus); also: alkane thiol SAM)
Oct4 (% population) (hES cells): 99.62 % population

GNRWHSIYITRFG
Ability to support ES cell growth (hES cells (H1 and H9)): support ES cell growth

FGF: peptide known to bind FGF receptor (SIDQVEPYSSTAQ)
hES cell self-renewal / Oct-4 expression (hES cells (H1B)): no longer express Oct-4

DITYVRLKF (not fully specified (C-terminus); also: alkane thiol SAM)
Oct4 (% population) (hES cells): 99.78 % population
Oct4 expression by FACS (hES cells; hES cell line H9, UM100 media (100 mg/ml of FGF-2), 1 week of culture): high level of Oct4 expression
